In US5948780A, “Method for treating and preventing heart failure and ventricular dilatation” (priority 1997, dated 1999):

Target: T1, MMP-2 (Gelatinase A) (Homo sapiens, UniProt P08253)
T1 sequence (P08253 110-660): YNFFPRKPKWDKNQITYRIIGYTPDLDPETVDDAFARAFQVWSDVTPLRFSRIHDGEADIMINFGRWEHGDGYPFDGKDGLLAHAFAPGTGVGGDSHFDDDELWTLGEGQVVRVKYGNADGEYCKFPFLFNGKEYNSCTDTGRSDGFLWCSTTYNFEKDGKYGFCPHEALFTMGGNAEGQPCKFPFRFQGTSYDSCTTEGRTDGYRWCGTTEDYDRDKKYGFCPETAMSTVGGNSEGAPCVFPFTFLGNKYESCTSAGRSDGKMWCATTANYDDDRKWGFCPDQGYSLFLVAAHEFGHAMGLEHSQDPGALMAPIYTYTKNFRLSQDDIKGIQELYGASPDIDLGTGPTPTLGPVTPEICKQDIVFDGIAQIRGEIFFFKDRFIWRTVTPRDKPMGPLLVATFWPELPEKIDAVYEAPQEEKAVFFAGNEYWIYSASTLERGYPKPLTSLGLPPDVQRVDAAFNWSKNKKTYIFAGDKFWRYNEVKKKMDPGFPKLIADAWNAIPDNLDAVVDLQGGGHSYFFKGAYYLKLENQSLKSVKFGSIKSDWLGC
Assay: biochemical
Settings: read-out: IC50 MMP2
Description: (§1) The assays measure the amount by which a test compound reduces the hydrolysis of a thiopeptolide substrate caused by a matrix metalloproteinase enzyme.
(§2) Thiopeptolide substrates show virtually no decomposition or hydrolysis in the absence of a matrix metalloproteinase enzyme. A typical thiopeptolide substrate commonly utilized for assays is Ac-Pro-Leu-Gly-thioester-Leu-Leu-Gly-O Et. […] Assays are carried out with and without matrix metalloproteinase inhibitor compounds, and the amount of hydrolysis is compared for a determination of inhibitory activity of the test compounds.

Compound | IC50 [nM]
O=C(Cc1ccccc1)N[C@@H](CC(=O)c1ccc2oc3ccccc3c2c1)C(=O)O [(S)-4-Dibenzofuran-2-yl-4-oxo-2-phenylacetylamino-butyric acid] | 84

Target: MMP-3 (stromelysin) (Homo sapiens, UniProt P08254)
Sequence (P08254 100-477): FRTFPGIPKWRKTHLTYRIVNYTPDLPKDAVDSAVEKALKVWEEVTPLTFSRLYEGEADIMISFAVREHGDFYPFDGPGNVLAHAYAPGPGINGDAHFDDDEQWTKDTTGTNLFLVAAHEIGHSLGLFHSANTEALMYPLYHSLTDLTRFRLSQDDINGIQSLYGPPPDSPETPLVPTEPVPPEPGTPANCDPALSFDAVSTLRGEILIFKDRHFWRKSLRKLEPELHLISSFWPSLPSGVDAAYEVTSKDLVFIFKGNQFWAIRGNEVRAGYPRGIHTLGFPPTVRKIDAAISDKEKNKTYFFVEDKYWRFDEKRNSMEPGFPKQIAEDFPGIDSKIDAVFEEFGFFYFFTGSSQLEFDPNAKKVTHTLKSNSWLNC
Assay: biochemical
Format: biochemical
Settings: read-out: IC50 MMP3
Description: as §1, §2

Compound | IC50 [nM]
O=C(Cc1ccccc1)N[C@@H](CC(=O)c1ccc2oc3ccccc3c2c1)C(=O)O [(S)-4-Dibenzofuran-2-yl-4-oxo-2-phenylacetylamino-butyric acid] | 330
O=C(O)CCC(=NO)c1ccc(-c2ccc(Cl)cc2)cc1 [4-(4'-Chloro-biphenyl-4-yl)-4-hydroxyimino-butyric acid] | 120
CN(C)N=C(CCC(=O)O)c1ccc(-c2ccc(Cl)cc2)cc1 [4-(4'-Chloro-biphenyl-4-yl)-4-(dimethylhydrazono)-butyric acid] | 930
O=C(O)CCC(=NO)c1ccc(-c2ccc(Br)cc2)cc1 [4-(4'-Bromo-biphenyl-4-yl)-4-hydroxyimino-butyric acid] | 110
O=C(O)CCC(O)c1ccc(-c2ccc(Cl)cc2)cc1 (racemic) [(±)-4-(4'-Chloro-biphenyl-4-yl)-4-hydroxy-butyric acid] | 280
CC(C)CC(CC(=O)NO)C(=O)N[C@@H](CC(C)C)C(=O)N[C@@H](Cc1ccccc1)C(N)=O (stereo partly shown) [Compound U24522, reference compound] | 20
